Experimental findings from ChEMBL document CHEMBL1201862, “PubChem BioAssay data set” (2004) are described below.

Counter-ions that a name gives are not always drawn. The source made the active and inactive calls.

One may read the AC50 as the concentration at which the activity in the assay is half-maximal. The EC50 is the concentration at which the effect is half-maximal. In general, IC50 refers to the concentration that inhibits the measured activity by half.

Assay [1] deals with T1, Replicative DNA helicase DnaB (Mycobacterium tuberculosis, UniProt P9WMR3).
T1 sequence (P9WMR3 whole entry): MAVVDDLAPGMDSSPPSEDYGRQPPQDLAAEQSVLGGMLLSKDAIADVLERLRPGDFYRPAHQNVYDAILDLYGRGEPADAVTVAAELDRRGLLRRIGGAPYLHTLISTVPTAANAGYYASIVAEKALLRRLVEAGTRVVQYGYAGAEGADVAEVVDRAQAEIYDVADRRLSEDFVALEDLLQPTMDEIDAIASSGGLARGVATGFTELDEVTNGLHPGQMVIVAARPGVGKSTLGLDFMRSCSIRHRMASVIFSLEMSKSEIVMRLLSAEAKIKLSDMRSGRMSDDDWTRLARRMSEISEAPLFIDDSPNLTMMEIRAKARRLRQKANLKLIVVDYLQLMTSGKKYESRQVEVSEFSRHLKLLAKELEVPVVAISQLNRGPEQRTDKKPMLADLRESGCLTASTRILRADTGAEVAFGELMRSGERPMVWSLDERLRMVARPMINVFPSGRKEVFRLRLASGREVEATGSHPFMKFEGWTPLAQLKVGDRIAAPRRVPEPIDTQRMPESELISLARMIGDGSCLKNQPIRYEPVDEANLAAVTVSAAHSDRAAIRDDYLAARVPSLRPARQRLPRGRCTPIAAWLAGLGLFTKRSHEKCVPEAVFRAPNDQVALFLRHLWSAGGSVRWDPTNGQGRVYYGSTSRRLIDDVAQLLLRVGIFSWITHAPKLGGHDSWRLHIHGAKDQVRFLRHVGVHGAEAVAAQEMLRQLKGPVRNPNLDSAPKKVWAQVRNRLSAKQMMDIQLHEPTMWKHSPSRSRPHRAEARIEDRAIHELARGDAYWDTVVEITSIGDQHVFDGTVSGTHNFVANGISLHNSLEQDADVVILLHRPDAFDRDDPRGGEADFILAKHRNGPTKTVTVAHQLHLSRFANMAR
The assay can be described thus: DnaB intein splicing inhibitors, dose response, biochemical, cell-free fluorescence (AID 449749). The assay is classed as functional.

Another assay deals with Caspase-7 (Homo sapiens, UniProt P55210). Kind of assay: procaspase-7 activators, dose response, dual procaspase-3/-7 activator project, biochemical, absorbance, human (AID 504330).
For a further assay, the target named is T2, Protein RecA (Mycobacterium tuberculosis, UniProt P9WHJ3).
T2 sequence (P9WHJ3 whole entry): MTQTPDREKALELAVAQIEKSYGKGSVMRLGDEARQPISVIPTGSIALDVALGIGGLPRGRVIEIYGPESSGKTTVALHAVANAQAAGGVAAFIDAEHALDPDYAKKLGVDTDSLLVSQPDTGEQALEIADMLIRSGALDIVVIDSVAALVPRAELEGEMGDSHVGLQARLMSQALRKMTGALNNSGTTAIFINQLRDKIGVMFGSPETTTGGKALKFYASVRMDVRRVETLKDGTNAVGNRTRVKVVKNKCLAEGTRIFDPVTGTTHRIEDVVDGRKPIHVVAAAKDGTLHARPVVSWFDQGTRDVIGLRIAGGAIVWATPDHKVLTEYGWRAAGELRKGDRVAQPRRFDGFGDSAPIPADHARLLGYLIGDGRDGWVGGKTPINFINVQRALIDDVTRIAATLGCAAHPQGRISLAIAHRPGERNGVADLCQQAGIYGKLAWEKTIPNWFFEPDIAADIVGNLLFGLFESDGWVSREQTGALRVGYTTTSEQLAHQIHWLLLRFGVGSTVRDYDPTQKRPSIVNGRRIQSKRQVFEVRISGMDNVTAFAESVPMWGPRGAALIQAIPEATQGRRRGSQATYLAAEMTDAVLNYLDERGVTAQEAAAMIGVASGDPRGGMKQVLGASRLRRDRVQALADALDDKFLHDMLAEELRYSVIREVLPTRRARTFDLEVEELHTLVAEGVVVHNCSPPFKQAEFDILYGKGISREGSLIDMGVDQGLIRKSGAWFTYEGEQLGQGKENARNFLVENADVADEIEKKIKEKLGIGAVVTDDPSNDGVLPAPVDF
The assay can be described thus: Fluorescence Cell-Free Homogeneous Dose Retest to Identify Inhibitors of RecA-Intein Splicing Activity. [Related pubchem assays (depositor defined):AID2097, AID2223, AID489010, AID492950]. Type of assay: functional.

A further assay deals with T3, Caspase-3 (Homo sapiens, UniProt P42574).
T3 sequence (P42574 whole entry): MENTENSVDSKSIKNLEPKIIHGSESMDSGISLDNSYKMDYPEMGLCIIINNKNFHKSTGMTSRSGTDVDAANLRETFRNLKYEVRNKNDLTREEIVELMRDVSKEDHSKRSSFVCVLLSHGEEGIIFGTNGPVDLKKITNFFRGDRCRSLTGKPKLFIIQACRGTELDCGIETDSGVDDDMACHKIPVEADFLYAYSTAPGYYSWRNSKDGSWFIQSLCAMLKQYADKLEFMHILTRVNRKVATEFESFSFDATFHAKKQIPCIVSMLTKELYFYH
The assay can be described thus: procaspase-3 activation potency of dual hits, dose response, counter-screen for dual procaspase-3/7 activator project, biochemical, absorbance, PC-3 D3A mutant (AID 504328). On the technique in general: Counterscreens check selectivity or assay interference.

For assay [2], the target named is T4, Tyrosine-protein phosphatase non-receptor type 7 (Homo sapiens, UniProt P35236).
T4 sequence (P35236 whole entry): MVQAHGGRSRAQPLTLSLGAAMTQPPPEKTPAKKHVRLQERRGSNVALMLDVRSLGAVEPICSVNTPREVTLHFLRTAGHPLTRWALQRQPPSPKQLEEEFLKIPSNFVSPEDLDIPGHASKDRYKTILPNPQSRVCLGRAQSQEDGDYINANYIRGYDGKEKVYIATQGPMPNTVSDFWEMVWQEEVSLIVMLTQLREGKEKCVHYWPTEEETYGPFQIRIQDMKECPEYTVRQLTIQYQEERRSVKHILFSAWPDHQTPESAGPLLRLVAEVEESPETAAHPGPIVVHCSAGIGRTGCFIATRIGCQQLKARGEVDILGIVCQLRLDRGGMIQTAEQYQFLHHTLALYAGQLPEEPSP
The assay can be described thus: SAR analysis of chemical inhibitors of HePTP using a Fluorescent assay - Set 2. [Related pubchem assays (depositor defined):AID1059, AID1077, AID1661, AID2085, AID521]. The assay is classed as functional.

The target of assay [3] is Alkaline phosphatase, placental type (Homo sapiens, UniProt P05187). Kind of assay: PLAP enzyme inhibitors, confirmation, biochemical, luminescence (AID 1512). Type of assay: functional.
Chain of Alkaline phosphatase, placental type (P05187 whole entry): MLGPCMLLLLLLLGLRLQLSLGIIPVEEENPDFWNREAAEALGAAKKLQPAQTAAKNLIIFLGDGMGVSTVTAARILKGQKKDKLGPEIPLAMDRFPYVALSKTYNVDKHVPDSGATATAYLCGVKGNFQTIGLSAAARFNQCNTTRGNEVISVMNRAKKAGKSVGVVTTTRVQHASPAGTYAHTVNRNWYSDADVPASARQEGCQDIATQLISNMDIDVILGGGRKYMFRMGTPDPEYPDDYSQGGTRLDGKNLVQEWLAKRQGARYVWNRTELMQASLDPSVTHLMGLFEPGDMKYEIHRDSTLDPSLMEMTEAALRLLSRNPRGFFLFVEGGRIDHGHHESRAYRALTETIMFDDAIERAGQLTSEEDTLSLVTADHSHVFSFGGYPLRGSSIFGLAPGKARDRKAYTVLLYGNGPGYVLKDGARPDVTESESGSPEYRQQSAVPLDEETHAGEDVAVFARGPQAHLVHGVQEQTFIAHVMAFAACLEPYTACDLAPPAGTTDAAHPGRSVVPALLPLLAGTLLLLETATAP
The target of assay [4] is Dual specificity protein phosphatase 3 (Homo sapiens, UniProt P51452). The assay can be described thus: SAR VHR1 Fluorescent Assay for In Vitro dose response studies Set 2. [Related pubchem assays (depositor defined):AID1654, AID1661, AID1878]. The assay is classed as functional.
Chain of Dual specificity protein phosphatase 3 (P51452 whole entry): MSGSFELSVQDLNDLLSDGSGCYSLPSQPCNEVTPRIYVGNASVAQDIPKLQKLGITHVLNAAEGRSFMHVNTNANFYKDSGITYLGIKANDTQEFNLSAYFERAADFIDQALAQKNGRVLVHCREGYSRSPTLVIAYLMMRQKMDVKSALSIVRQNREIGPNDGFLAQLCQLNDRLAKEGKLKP
The target in assay [5] is T5, G-protein coupled receptor 55 (Homo sapiens, UniProt Q9Y2T6). The assay can be described thus: GPR55 agonists via beta-arrestin recruitment, primary screen, imaging, U2OS cells, beta-arrestin-GFP redistribution (AID 1961). Type of assay: functional.
T5 sequence (Q9Y2T6 whole entry): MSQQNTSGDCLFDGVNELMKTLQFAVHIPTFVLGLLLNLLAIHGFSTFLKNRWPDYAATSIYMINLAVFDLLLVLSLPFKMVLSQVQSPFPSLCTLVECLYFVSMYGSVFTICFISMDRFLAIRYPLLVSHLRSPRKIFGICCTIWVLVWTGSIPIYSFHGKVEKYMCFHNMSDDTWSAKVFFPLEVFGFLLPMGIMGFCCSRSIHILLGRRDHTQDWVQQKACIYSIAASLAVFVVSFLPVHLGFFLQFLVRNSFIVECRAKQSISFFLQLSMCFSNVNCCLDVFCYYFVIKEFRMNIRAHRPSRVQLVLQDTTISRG
In assay [6] the target is T5, G-protein coupled receptor 55. The assay can be described thus: GPR55 antagonists blocking LPI-driven arrestin recruitment, primary screen, imaging, U2OS, beta-arrestin-GFP, LPI agonist (AID 2013).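 Further: antagonist potency measured as reduced agonist-driven arrestin aggregation.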 The assay is classed as functional. For orientation: Recruitment of arrestin is a read-out of receptor activation apart from second messengers.
The target in assay [7] is Voltage-dependent T-type calcium channel subunit alpha-1H (Homo sapiens, UniProt O95180). The assay is classed as functional.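 Further: channel activity triggered by adding a high calcium stimulation buffer.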
Chain of Voltage-dependent T-type calcium channel subunit alpha-1H (O95180 whole entry): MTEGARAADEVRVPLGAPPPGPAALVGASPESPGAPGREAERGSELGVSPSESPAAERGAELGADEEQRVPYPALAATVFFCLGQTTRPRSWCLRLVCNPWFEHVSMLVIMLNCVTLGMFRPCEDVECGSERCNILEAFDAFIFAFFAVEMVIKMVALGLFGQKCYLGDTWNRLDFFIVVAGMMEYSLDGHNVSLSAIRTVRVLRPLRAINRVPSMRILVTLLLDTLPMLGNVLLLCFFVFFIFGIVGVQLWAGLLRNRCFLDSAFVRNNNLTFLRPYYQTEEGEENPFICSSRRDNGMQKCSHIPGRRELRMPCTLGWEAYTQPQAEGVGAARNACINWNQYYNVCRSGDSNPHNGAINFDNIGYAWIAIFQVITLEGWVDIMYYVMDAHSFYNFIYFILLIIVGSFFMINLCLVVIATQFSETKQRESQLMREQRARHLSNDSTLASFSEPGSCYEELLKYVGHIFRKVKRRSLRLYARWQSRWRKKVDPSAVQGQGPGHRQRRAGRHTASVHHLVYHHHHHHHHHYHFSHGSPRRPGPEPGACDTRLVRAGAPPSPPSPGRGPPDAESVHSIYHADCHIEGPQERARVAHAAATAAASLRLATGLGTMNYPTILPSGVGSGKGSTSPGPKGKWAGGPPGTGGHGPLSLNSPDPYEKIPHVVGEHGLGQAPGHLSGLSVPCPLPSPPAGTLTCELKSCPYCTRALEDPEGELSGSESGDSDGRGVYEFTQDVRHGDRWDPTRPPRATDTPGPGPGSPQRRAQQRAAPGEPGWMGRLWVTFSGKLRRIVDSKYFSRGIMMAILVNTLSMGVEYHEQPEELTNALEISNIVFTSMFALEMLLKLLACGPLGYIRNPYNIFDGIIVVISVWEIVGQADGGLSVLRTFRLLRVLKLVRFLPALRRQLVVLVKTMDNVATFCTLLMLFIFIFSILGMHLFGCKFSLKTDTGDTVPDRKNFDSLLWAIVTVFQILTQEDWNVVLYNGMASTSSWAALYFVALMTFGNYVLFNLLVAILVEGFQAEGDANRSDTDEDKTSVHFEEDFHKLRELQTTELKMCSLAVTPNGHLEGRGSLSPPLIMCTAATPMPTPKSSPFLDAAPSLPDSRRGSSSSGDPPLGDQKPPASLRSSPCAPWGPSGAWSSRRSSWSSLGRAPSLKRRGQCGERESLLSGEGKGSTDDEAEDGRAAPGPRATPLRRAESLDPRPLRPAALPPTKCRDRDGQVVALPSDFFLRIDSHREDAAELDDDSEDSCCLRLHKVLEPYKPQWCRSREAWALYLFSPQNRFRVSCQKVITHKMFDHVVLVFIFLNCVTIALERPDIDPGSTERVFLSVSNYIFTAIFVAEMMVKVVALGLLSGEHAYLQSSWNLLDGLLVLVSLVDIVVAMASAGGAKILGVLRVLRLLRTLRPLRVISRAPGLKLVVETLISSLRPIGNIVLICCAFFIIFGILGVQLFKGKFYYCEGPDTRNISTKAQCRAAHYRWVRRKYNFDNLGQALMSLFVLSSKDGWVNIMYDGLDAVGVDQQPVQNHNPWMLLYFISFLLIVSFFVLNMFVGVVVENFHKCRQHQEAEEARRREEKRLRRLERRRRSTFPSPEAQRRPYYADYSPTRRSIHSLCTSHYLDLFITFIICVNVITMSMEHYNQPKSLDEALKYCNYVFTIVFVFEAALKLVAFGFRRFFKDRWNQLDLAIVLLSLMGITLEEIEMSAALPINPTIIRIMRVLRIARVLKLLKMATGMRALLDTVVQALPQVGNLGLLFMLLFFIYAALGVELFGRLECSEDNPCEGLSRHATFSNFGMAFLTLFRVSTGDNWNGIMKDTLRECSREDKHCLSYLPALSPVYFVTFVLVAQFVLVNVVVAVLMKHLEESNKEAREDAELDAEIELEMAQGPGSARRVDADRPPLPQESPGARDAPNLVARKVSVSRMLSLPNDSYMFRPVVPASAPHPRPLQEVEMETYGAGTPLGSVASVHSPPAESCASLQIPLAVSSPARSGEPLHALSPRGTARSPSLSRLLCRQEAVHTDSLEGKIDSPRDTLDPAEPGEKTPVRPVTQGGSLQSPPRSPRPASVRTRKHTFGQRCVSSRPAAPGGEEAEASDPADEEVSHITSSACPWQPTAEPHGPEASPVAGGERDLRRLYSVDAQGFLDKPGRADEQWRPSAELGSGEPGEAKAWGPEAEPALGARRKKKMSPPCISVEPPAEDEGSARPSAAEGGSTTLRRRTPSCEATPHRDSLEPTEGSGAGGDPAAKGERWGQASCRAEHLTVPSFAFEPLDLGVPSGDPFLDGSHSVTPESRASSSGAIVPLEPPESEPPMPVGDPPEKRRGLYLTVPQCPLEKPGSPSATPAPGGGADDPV
The target in assay [8] is Polyadenylate-binding protein 1 (Homo sapiens, UniProt P11940). Kind of assay: PABP inhibition in translation initiation, SAR follow-up (AID 435018). Type of assay: functional.
Chain of Polyadenylate-binding protein 1 (P11940 whole entry): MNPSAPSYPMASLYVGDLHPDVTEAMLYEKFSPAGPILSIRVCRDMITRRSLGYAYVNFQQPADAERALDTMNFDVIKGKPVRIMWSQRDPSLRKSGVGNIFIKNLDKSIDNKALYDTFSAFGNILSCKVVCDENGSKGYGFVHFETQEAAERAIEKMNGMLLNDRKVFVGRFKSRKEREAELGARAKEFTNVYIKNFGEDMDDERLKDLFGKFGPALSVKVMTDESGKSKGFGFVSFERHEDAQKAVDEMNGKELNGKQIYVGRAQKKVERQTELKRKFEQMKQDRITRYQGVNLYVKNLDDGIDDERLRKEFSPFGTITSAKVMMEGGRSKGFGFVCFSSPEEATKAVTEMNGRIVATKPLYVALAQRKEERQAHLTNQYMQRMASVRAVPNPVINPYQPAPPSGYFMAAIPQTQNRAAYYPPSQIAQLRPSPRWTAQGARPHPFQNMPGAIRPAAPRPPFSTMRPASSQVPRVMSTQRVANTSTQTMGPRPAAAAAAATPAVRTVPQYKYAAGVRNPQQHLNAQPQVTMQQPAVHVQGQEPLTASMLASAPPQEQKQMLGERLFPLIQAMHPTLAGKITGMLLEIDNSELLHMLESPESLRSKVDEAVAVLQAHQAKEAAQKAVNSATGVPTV
In assay [9] the target is Eukaryotic translation initiation factor 4H (Homo sapiens, UniProt Q15056). The assay can be described thus: eIF4H inhibition in translation initiation, SAR follow-up (AID 435011). The assay is classed as functional.
The target of assay [10] is Melanin-concentrating hormone receptor 1 (Homo sapiens, UniProt Q99705). Kind of assay: Late-stage fluorescence-based counterscreen for antagonists of the G-protein coupled receptor 7 (GPR7): cell-based dose response assay to identify antagonists of the melanin-concentrating hormone receptor 1 (MCHR1). [Related pubchem assays (depositor defined):AID1861, AID1880, AID1952, AID2148, AID2251, AID2257, AID485339]. The assay is classed as functional.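 Further: stimulated with 30 nM MCH peptide agonist.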
Chain of Melanin-concentrating hormone receptor 1 (Q99705 whole entry): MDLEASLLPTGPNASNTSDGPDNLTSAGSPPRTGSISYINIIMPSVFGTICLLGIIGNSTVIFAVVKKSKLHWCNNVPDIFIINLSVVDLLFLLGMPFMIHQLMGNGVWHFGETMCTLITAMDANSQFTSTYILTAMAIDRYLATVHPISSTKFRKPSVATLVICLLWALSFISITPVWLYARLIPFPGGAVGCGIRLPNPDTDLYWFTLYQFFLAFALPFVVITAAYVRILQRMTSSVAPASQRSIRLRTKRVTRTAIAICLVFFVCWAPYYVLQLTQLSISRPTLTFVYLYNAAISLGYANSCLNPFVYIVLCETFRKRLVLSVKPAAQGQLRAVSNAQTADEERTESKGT

Assay [11] concerns the target T6, Neuropeptides B/W receptor type 1 (Homo sapiens, UniProt P48145).
T6 sequence (P48145 whole entry): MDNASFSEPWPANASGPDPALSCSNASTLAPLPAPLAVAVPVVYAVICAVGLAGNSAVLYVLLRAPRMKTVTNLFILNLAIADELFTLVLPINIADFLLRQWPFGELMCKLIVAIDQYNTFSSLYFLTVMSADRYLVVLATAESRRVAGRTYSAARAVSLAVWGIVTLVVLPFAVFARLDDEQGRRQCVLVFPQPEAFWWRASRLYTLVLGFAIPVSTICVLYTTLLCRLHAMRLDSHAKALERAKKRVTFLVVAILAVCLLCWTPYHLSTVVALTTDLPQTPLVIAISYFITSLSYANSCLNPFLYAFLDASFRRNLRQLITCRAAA
The assay can be described thus: GPR7 antagonist potency, late-stage follow-up, cell-based, fluorescence, dose response (AID 463251). The assay is classed as functional.

Assay [12] in a line: cytotoxicity in NIH/3T3 mouse fibroblasts, dose response, cytotoxicity control, cell-based, mouse embryonic fibroblasts, dry powder, set 2 (AID 493247). Conditions: Fibroblast. The assay is classed as functional.
In a further assay the test system is Trypanosoma cruzi. Kind of assay: growth inhibition of intracellular Trypanosoma cruzi, dose response, cell-based, plate reader, dry powder, set 3 (AID 493197). Type of assay: functional.
Assay [13] concerns the target T7, Short transient receptor potential channel 4 (Mus musculus, UniProt Q9QUQ5).
T7 sequence (Q9QUQ5 whole entry): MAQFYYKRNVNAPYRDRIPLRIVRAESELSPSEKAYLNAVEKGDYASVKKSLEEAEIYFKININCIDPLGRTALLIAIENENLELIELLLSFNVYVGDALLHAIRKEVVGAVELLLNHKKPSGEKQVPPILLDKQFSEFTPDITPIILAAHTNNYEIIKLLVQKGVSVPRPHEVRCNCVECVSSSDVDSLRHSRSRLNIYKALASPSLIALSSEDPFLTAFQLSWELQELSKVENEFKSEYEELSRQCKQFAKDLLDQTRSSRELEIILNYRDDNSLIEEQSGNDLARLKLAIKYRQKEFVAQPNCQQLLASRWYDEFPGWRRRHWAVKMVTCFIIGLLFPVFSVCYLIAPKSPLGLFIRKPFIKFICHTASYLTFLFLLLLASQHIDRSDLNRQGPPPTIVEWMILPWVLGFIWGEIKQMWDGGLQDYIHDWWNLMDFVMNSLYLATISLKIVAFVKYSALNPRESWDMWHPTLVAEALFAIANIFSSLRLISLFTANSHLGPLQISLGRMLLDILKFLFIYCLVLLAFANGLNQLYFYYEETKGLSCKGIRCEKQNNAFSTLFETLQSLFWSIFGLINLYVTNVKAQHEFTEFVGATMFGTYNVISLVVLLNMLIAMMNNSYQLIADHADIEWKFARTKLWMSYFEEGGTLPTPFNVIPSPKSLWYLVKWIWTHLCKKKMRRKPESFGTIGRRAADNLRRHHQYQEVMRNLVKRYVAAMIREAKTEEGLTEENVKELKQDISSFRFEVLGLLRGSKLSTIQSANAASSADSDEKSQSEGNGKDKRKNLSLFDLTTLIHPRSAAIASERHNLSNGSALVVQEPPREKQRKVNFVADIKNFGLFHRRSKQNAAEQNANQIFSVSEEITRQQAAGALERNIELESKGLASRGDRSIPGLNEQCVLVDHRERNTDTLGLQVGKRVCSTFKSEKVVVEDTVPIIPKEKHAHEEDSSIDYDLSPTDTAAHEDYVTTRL
Kind of assay: TRPC4 positive allosteric modulators, dose response, cell-based, HEK293 TRPC4/mu-opioid, Fluo-4 calcium, EC20 DAMGO (AID 434941).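 Further: HEK293 cells coexpressing TRPC4 and mu opioid receptor stimulated by EC20 DAMGO.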 Type of assay: functional.

In assay [14] the target is 5-hydroxytryptamine receptor 1A (Homo sapiens, UniProt P08908). Type of assay: functional.
Chain of 5-hydroxytryptamine receptor 1A (P08908 whole entry): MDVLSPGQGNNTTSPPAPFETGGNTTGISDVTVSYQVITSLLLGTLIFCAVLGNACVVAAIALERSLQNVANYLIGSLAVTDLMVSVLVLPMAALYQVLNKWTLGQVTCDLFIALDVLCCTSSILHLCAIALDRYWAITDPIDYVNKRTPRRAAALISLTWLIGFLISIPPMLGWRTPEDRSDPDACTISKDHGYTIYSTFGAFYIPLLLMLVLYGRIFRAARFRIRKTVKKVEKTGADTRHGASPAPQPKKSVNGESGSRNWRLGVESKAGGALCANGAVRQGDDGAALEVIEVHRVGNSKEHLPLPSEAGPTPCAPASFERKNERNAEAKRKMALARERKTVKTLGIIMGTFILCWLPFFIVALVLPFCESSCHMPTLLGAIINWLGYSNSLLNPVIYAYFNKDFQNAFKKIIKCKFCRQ

Turning to `Cc1n[nH]c2c1C(c1c[nH]c3ccccc13)C(C#N)=C(N)O2` (stereo not drawn), the AC50 in assay [1] was 3.79 µM (active). For the same molecule, the values for the EC50 on Caspase-7, on Protein RecA and on Caspase-3 were 27.8 µM (inactive), 2.03 µM (active) and 23.1 µM (inactive), respectively.
`Cc1ccc(NC(S)=NNC(=O)c2cn(C)nc2C)cc1`: the IC50 in assay [2], in [3] and in [4] was > 100 µM (inactive) throughout.
Turning to `COc1cc2c(cc1NC(=O)CSc1ccc(Cl)cc1)oc1ccccc12`, in assay [5], the EC50 is 20.7 µM (inactive).
For `CCN(c1ccccc1)S(=O)(=O)c1ccc(NCC2COc3ccccc3O2)nc1` (stereo not drawn), the IC50 in assay [6] is 6.56 µM (active). Moreover, the EC50 in assay [7] is 7.97 µM (active).
For `COc1ccc([N+](=O)[O-])cc1NC(=O)COC(=O)c1ccccc1C(=O)c1ccccc1`, the IC50 in [8] and in assay [9] was > 100 µM (inactive) in each case.
In the case of `CC(C)c1ccc(-n2ncc(Cl)c(Oc3cccc(N(C)C)c3)c2=O)cc1`, the IC50 in assay [10] is 3.1 µM (active); in [11], 1.6 µM (active).
With `O=C(Cc1cccnc1)N/N=C/c1ccc([N+](=O)[O-])o1`, the AC50 in [12] is 23.1 µM (active); with Trypanosoma cruzi, 0.131 µM (active).
In the case of `Cc1cc(C(C)(C)C)c(O)c(C)c1CC1=NCCN1` [OXYMETAZOLINE HYDROCHLORIDE], the half-maximal effective concentration (EC50) is 3.35 µM (active) in assay [13] and 0.07 µM (active) in assay [14].
